# According to patent US9650340B2, “5-fluoro-N-(pyridin-2-yl)pyridin-2-amine derivatives containing a sulfoximine group” (BAYER PHARMA AKTIENGESELLSCHAFT, priority 2012, dated 2017):
# Counter-ions that a name gives are not always drawn. Like-named read-outs stand apart in the source and are kept apart here.
# Key:
# [1] = target: T1, CDK9/CycT1 (Homo sapiens, UniProt P50750); assay: CDK9/CycT1 high ATP kinase assay (TR-FRET, 2 mM ATP); format: biochemical; conditions: Method 1b
# T1 construct: Recombinant full-length His-tagged human CDK9 and CycT1; His; purchased Invitrogen PV4131; host or cells: insect cells
# T1 sequence (P50750 whole entry): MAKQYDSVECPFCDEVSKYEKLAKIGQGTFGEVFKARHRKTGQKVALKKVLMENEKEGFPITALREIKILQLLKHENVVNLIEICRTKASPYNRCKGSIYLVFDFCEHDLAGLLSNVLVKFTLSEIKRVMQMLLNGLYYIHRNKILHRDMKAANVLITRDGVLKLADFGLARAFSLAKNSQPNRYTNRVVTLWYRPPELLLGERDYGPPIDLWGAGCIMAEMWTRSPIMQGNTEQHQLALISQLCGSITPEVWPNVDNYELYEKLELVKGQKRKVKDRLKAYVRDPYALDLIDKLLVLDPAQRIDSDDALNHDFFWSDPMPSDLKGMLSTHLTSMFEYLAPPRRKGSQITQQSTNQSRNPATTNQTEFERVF
# T1 sequence (O60563 whole entry partner): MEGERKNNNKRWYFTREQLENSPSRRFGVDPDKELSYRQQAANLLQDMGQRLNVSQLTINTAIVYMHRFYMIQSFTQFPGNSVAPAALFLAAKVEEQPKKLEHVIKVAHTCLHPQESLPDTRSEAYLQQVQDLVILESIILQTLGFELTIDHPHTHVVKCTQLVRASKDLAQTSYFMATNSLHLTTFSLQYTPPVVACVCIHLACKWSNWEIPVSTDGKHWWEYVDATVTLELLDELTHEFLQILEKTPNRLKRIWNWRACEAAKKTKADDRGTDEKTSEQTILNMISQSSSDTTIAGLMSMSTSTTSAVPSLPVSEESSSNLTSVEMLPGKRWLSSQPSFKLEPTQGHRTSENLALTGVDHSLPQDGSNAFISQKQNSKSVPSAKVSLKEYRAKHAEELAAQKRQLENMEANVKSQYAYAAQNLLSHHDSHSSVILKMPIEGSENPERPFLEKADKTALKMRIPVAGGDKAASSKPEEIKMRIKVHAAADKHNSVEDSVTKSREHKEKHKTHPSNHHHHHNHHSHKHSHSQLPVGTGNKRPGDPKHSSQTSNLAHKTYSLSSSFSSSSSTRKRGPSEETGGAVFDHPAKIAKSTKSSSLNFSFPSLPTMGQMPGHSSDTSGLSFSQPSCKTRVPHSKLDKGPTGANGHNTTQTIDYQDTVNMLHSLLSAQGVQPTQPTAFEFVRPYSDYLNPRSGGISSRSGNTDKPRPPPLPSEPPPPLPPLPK
# Procedure: 1b. CDK9/CyeT1 High ATP Kinase Assay
# CDK9/CycT1-inhibitory activity of compounds of the present invention at a high ATP concentration after preincubation of enzyme and test compounds was quantified employing the CDK9/CycT1 TR-FRET assay as described in the following paragraphs.
# Recombinant full-length His-tagged human CDK9 and CycT1, expressed in insect cells and purified by Ni-NTA affinity chromatography, were purchase from Invitrogen (Cat. No PV4131). As substrate for the kinase reaction biotinylated peptide biotin-Ttds-[…] (C-terminus in amid form) was used which can be purchased e.g. form the company JERINI peptide technologies (Berlin, Germany). For the assay 50 nl of a 100 fold concentrated solution of the test compound in DMSO was pipetted into a black low volume 384 well microtiter plate (Greiner Bio-One, Frickenhausen, Germany), 2 μl of a solution of CDK9/CycT1 in aqueous assay buffer [50 mM Tris/HCl pH 8.0, 10 mM MgCl2, 1.0 mM dithiothreitol, 0.1 mM sodium ortho-vanadate, 0.01% (v/v) Nonidet-P40 (Sigma)] were added and the mixture was incubated for 15 min at 22° C. to allow pre-binding of the test compounds to the enzyme before the start of the kinase reaction. Then the kinase reaction was started by the addition of 3 μl of a solution of adenosine-tri-phosphate (ATP, 3.3 mM=>final conc. in the 5 μl assay volume is 2 mM) and substrate (1.67 μM=>final conc. in the 5 μl assay volume is 1 μM) in assay buffer and the resulting mixture was incubated for a reaction time of 25 min at 22° C.
# The resulting mixture was incubated 1 h at 22° C. to allow the formation of complex between the phosphorylated biotinylated peptide and the detection reagents. Subsequently the amount of phosphorylated substrate was evaluated by measurement of the resonance energy transfer from the Eu-chelate to the streptavidine-XL. Therefore, the fluorescence emissions at 620 nm and 665 nm after excitation at 350 nm was measured in a HTRF reader, e.g. a Rubystar (BMG Labtechnologies, Offenburg, Germany) or a Viewlux (Perkin-Elmer). The ratio of the emissions at 665 nm and at 622 nm was taken as the measure for the amount of phosphorylated substrate.
# [2] = tested on: NCI-H460, human non-small cell lung carcinoma cells; assay: Proliferation assay, NCI-H460 (crystal violet); format: cell-based; conditions: NCI-H460, 4 days, read-out: Inhibition of NCI-H460 cell proliferation IC50
# Procedure: (§1) Cultivated tumour cells (HeLa, human cervical tumour cells, ATCC CCL-2; NCI-H460, human non-small cell lung carcinoma cells, ATCC HTB-177; A2780, human ovarian carcinoma cells, ECACC #93112519; DU 145, hormone-independent human prostate carcinoma cells, ATCC HTB-81; HeLa-MaTu-ADR, multidrug-resistant human cervical carcinoma cells, EPO-GmbH Berlin; Caco-2, human colorectal carcinoma cells, ATCC HTB-37; B16F10, mouse melanoma cells, ATCC CRL-6475) were plated at a density of 5,000 cells/well (DU145, HeLa-MaTu-ADR), 3,000 cells/well (NCI-H460, HeLa), 2,500 cells/well (A2780), 1,500 cells/well (Caco-2), or 1,000 cells/well (B16F10) in a 96-well multititer plate in 200 μL of their respective growth medium supplemented 10% fetal calf serum. After 24 hours, the cells of one plate (zero-point plate) were stained with crystal violet (see below), while the medium of the other plates was replaced by fresh culture medium (200 μl), to which the test substances were added in various concentrations (0 μM, as well as in the range of 0.001-10 μM; the final concentration of the solvent dimethyl sulfoxide was 0.5%). The cells were incubated for 4 days in the presence of test substances. Cell proliferation was determined by staining the cells with crystal violet: the cells were fixed by adding 20 μl/measuring point of an 11% glutaric aldehyde solution for 15 minutes at room temperature. After three washing cycles of the fixed cells with water, the plates were dried at room temperature. The cells were stained by adding 100 μl/measuring point of a 0.1% crystal violet solution (pH 3.0). After three washing cycles of the stained cells with water, the plates were dried at room temperature. The dye was dissolved by adding 100 μl/measuring point of a 10% acetic acid solution. The extinction was determined by photometry at a wavelength of 595 nm. The change of cell number, in percent, was calculated by normalization of the measured values to the extinction values of the zero-point plate (=0%) and the extinction of the untreated (0 μm) cells (=100%). The IC50 values (inhibitory concentration at 50% of maximal effect) were determined by means of a 4 parameter fit. Non-adherent MOLM-13 human acute myeloid leukemia cells (DSMZ ACC 554) were seeded at a density of 5,000 cells/well in a 96-well multititer plate in 100 μL of growth medium supplemented 10% fetal calf serum. After 24 hours, cell viability of one plate (zero-point plate) was determined with the Cell Titre-Glo Luminescent Cell Viability Assay (Promega), while 50 μL of test compound containing medium was added to the wells of the other plates (final concentrations in the range of 0.001-10 μM and DMSO controls; the final concentration of the solvent dimethyl sulfoxide was 0.5%). Cell viability was assessed after 72-hour exposure with the Cell Titre-Glo Luminescent Cell Viability Assay (Promega).
# [3] = tested on: Caco-2, human colorectal carcinoma cells; assay: Proliferation assay, Caco-2 (crystal violet); format: cell-based; conditions: Caco-2, 4 days, read-out: Inhibition of Caco-2 cell proliferation IC50
# Procedure: as §1
SMILES,IC50 [1] [nM],"IC50 ([2]; Homo sapiens, NCI-H460, 96 h) [nM]","IC50 ([3]; Homo sapiens, Caco-2, 96 h) [nM]",IC50 [2] [nM],IC50 [3] [nM]
"CCNC(=O)N=S(C)(=O)Cc1ccnc(Nc2cc(-c3ccc(F)cc3OC)c(F)cn2)c1 (racemic) [Example 12, (rac)-1-Ethyl-3-{[(2-{[5-fluoro-4-(4-fluoro-2-methoxyphenyl)pyridin-2-yl]amino}pyridin-4-yl)methyl](methyl)oxido-λ^6-sulfanylidene}urea]",2,100,98,,
"COc1cc(F)ccc1-c1cc(Nc2cc(CS(C)(=N)=O)c(Br)c(C)n2)ncc1F (racemic) [Example 5, (rac)-5-Bromo-N-[5-fluoro-4-(4-fluoro-2-methoxyphenyl)pyridin-2-yl]-6-methyl-4-[(S-methylsulfonimidoyl)methyl]pyridin-2-amine]",3,120,110,,
"COc1cc(F)ccc1-c1cc(Nc2cc(CS(C)(=N)=O)cc(C)n2)ncc1F (single isomer, unassigned; (-)) [Example 33, (−)-5-Fluoro-4-(4-fluoro-2-methoxyphenyl)-N-{6-methyl-4-[(S-methylsulfonimidoyl)methyl]pyridin-2-yl}pyridin-2-amine]",1,,,30,30
"COc1cc(F)ccc1-c1cc(Nc2cc(CS(C)(=N)=O)ccn2)ncc1F.Cl (single isomer, unassigned; enantiomer 2) [Example 14, 5-Fluoro-4-(4-fluoro-2-methoxyphenyl)-N-{4-[(S-methylsulfonimidoyl)methyl]pyridin-2-yl}pyridin-2-amine hydrochloride; enantiomer 2]",,,,30,37
"CCOc1cc(F)ccc1-c1cc(Nc2cc(CS(C)(=O)=NC(=O)C(F)(F)F)cc(F)n2)ncc1F (racemic) [Example 27, (rac)-N-{[(2-{[4-(2-Ethoxy-4-fluoro-phenyl)-5-fluoropyridin-2-yl]amino}-6-fluoropyridin-4-yl)methyl]-(methyl)oxido-λ^6-sulfanylidene}-2,2,2-trifluoroacetamide]",22,120,130,,
"COc1cc(F)ccc1-c1cc(Nc2cc(CS(C)(=O)=NC(=O)C(F)(F)F)cc(F)n2)ncc1F (racemic) [Example 18, (rac)-2,2,2-Trifluoro-N-{[(2-fluoro-6-{[5-fluoro-4-(4-fluoro-2-methoxyphenyl)pyridin-2-yl]amino}pyridin-4-yl)methyl](methyl)oxido-λ^6-sulfanylidene}acetamide]",4,110,43,,
"COc1cc(F)ccc1-c1cc(Nc2cc(CS(C)(=N)=O)cc(C(F)(F)F)n2)ncc1F (single isomer, unassigned; (+)) [Example 22, (+)-5-Fluoro-4-(4-fluoro-2-methoxyphenyl)-N-{4-[(S-methylsulfonimidoyl)methyl]-6-(trifluoromethyl)pyridin-2-yl}pyridin-2-amine]",1,34,38,,
"CCOc1cc(F)ccc1-c1cc(Nc2cc(CS(C)(=N)=O)cc(F)n2)ncc1F (single isomer, unassigned; (+)) [Example 28, (+)-4-(2-Ethoxy-4-fluorophenyl)-5-fluoro-N-{6-fluoro-4-[(S-methylsulfonimidoyl)methyl]pyridin-2-yl}pyridin-2-amine]",4,190,120,,
"COc1cc(F)ccc1-c1cc(Nc2cc(CS(=N)(=O)CCO)ccn2)ncc1F (racemic) [Example 8, (rac)-2-{S-[(2-{[5-Fluoro-4-(4-fluoro-2-methoxyphenyl)pyridin-2-yl]amino}pyridin-4-yl)methyl]sulfonimidoyl}ethanol]",14,290,160,,
"COc1cc(F)ccc1-c1cc(Nc2cc(CS(C)(=N)=O)cc(F)n2)ncc1F (single isomer, unassigned; (+)) [Example 19, (+)-5-Fluoro-4-(4-fluoro-2-methoxyphenyl)-N-{6-fluoro-4-[(S-methylsulfonimidoyl)methyl]pyridin-2-yl}pyridin-2-amine]",19,110,,,
"COc1cc(F)ccc1-c1cc(Nc2cc(CS(C)(=N)=O)ccn2)ncc1F (single isomer, unassigned; enantiomer 1) [Example 16, 5-Fluoro-4-(4-fluoro-2-methoxyphenyl)-N-{4-[(S-methylsulfonimidoyl)methyl]pyridin-2-yl}pyridin-2-amine hydrochloride; enantiomer 1]",,,,130,120
"COc1cc(F)ccc1-c1cc(Nc2cc(CS(C)(=N)=O)ccn2)ncc1F (single isomer, unassigned; (-)) [Example 3, (−)-5-Fluoro-4-(4-fluoro-2-methoxyphenyl)-N-{4-[(S-methylsulfonimidoyl)methyl]pyridin-2-yl}pyridin-2-amine]",,,,65,58
"COc1cc(F)ccc1-c1cc(Nc2cc(CS(C)(=N)=O)cc(C(F)F)n2)ncc1F (racemic) [Example 31, (rac)-N-{6-(Difluoromethyl)-4-[(S-methylsulfonimidoyl)methyl]pyridin-2-yl}-5-fluoro-4-(4-fluoro-2-methoxyphenyl)pyridin-2-amine]",1,,,,
"COc1cc(F)ccc1-c1cc(Nc2cc(CS(=N)(=O)CCN)ccn2)ncc1F (racemic) [Example 9, (rac)-N-(4-{[S-(2-Aminoethyl)sulfonimidoyl]methyl}pyridin-2-yl)-5-fluoro-4-(4-fluoro-2-methoxyphenyl)pyridin-2-amine]",6,,,,
"COc1cc(F)ccc1-c1cc(Nc2cc(CS(C)(=N)=O)ccn2)ncc1F (single isomer, unassigned; (+)) [Example 2, (+)-5-Fluoro-4-(4-fluoro-2-methoxyphenyl)-N-{4-[(S-methylsulfonimidoyl)methyl]pyridin-2-yl}pyridin-2-amine]",,,,75,62
"COc1cc(F)ccc1-c1cc(Nc2cc(CS(C)(=N)=O)ccn2)ncc1F (racemic) [Example 1, (rac)-5-Fluoro-4-(4-fluoro-2-methoxyphenyl)-N-{4-[(S-methylsulfonimidoyl)methyl]pyridin-2-yl}pyridin-2-amine]",,62,45,,
